We go through 48 compounds from ChEMBL document CHEMBL1949658, “3D-QSAR and 3D-QSSR models of negative allosteric modulators facilitate the design of a novel selective antagonist of human α4β2 neuronal nicotinic acetylcholine receptors” (Bioorg Med Chem Lett, 2012).

The species entered for data set [1] is Homo sapiens. Put plainly: Selectivity ratio of pIC50 for human nAChR alpha3/beta4 receptor to pIC50 for human nAChR alpha4/beta2 receptor.
Data set [2] deals with Neuronal acetylcholine receptor; alpha4/beta2 (Homo sapiens, UniProt P17787+P43681). Put plainly: Antagonist activity at human nAChR alpha4/beta2 receptor expressed in HEK ts201 cells assessed as calcium accumulation by fluorescence analysis. In kind it is functional, cell-based.
Neuronal acetylcholine receptor; alpha4/beta2, sequence (P17787 whole entry): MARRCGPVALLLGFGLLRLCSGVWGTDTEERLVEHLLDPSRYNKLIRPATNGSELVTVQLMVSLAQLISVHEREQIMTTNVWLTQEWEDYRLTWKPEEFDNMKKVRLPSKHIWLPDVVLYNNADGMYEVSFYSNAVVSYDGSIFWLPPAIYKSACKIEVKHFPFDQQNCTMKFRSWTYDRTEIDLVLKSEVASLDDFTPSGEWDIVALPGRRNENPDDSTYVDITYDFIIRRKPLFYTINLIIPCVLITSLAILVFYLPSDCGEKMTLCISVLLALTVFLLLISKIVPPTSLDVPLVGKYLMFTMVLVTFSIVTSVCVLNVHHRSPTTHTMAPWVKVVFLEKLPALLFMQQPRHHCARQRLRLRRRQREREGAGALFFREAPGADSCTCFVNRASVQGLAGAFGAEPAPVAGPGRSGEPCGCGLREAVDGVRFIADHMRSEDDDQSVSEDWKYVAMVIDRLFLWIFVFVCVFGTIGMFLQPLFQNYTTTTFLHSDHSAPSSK
Neuronal acetylcholine receptor; alpha4/beta2, sequence (P43681 whole entry): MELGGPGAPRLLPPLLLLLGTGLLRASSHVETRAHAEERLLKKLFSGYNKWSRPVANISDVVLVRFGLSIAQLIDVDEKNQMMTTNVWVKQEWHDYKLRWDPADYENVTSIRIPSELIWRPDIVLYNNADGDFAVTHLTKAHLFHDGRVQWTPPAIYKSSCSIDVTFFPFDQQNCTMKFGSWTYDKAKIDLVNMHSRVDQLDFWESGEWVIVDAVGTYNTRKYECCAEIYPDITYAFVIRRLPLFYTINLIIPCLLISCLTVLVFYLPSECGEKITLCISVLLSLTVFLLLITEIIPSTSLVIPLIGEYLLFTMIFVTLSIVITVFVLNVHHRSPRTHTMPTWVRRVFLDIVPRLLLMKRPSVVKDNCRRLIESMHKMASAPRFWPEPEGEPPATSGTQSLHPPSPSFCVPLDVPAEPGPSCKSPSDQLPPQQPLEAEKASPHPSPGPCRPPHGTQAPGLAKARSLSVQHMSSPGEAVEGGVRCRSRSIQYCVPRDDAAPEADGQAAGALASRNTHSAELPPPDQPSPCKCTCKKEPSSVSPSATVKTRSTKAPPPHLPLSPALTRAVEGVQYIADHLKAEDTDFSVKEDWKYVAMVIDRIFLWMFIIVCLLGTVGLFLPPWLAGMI
In data set [3] the target is Neuronal acetylcholine receptor; alpha3/beta4 (Homo sapiens, UniProt P30926+P32297). Put plainly: Antagonist activity at human nAChR alpha3/beta4 receptor expressed in HEK ts201 cells assessed as calcium accumulation by fluorescence analysis. In kind it is functional, cell-based.
Neuronal acetylcholine receptor; alpha3/beta4, sequence (P30926 whole entry): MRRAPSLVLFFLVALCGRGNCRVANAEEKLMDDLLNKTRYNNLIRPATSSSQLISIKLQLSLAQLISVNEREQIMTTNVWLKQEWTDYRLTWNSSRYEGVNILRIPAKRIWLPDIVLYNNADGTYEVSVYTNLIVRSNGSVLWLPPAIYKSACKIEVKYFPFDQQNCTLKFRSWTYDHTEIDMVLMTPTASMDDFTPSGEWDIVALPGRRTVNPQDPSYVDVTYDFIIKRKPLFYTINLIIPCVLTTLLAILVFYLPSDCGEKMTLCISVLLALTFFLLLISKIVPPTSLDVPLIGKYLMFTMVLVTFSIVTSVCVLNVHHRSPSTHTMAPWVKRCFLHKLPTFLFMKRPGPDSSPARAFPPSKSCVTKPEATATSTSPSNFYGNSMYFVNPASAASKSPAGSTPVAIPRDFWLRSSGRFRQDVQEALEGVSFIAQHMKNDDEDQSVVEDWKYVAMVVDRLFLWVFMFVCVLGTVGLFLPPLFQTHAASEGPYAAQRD
Neuronal acetylcholine receptor; alpha3/beta4, sequence (P32297 whole entry): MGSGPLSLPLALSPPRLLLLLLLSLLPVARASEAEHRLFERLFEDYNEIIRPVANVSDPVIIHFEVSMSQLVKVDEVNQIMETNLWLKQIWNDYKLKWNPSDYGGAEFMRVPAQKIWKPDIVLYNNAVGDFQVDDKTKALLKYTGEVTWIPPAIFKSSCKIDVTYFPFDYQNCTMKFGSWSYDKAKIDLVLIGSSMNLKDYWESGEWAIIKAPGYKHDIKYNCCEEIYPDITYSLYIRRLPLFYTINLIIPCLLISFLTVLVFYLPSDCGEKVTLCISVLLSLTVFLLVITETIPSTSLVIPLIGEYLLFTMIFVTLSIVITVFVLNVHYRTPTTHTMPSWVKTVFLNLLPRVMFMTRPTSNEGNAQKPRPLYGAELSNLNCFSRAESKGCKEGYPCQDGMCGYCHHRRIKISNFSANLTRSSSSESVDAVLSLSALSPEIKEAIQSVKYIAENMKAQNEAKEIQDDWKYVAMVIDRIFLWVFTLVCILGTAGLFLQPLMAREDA
Data set [4] is filed under the species Homo sapiens. Put plainly: Selectivity ratio of IC50 for human nAChR alpha3/beta4 receptor to IC50 for human nAChR alpha4/beta2 receptor.
Data set [5] is described as follows: Lipophilicity, log P of the compound. In kind it is physicochemical. As to conditions: octanol/water.

Take `COc1ccc(OCCCCCN2CCCC(COC(=O)c3ccccc3N3C(=O)CC(C)C3=O)C2)cc1OC` (stereo not given): the Ratio pIC50 in data set [1] amounted to 2.38. Moreover, the IC50 in data set [2] (read-out: pIC50 (converted)) was 8.32 µM; in data set [3] (read-out: pIC50 (converted)) it was 2000 µM.
The matching figures for `O=C(OCc1ccccc1-c1ccccc1)C1CCCN(CCCc2ccccc2)C1` (single isomer, unassigned): 0.24, 17.8 µM and 10.2 µM.
On to `O=C(OCC1=CCCN(CCCc2ccccc2)C1)c1ccccc1N1C(=O)CC(Cc2ccccc2)C1=O` (stereo not given), for which, in data set [1], the Ratio pIC50 is -0.14. Further, the IC50 in data set [2] (read-out: pIC50 (converted)) was 5.13 µM; in data set [3] (read-out: pIC50 (converted)) it was 3.72 µM.
For `COc1ccc(CC2CC(=O)N(c3ccccc3C(=O)OCC3CCCN(CCCc4ccccc4)C3)C2=O)cc1` (stereo not given) the same measures were -0.13, 38.9 µM and 28.8 µM.
For `O=C(OCC1CCCN(CCCc2ccccc2)C1)c1ccccc1N1C(=O)CC(Cc2ccc(Cl)cc2)C1=O` (stereo not given) the same measures were 0.14, 10.7 µM and 14.5 µM.
For `O=C(OCC1CCCN(CCCc2ccccc2)C1)c1ccc(-c2ccccc2)cc1` (stereo not given) the same measures were 0.47, 6.31 µM and 18.6 µM.
For `O=C(Nc1ccccn1)c1ccccc1-c1ccccc1`, the Ratio IC50 in data set [4] stood at 1.3. In addition, the values for the IC50 in data set [2] (read-out: IC50) and in data set [3] (read-out: IC50) were 13.6 µM and 17.5 µM, respectively.
Regarding `O=C(OCC1CCN(CCCc2ccccc2)CC1)c1ccccc1-c1ccccc1`, in data set [1], the Ratio pIC50 was determined as 0.11. Further, the IC50 in data set [2] (read-out: IC50) stood at 8.1 µM; in data set [3] (read-out: IC50), 10.5 µM.
With `O=C(OCC1CCCNC1)c1ccccc1-c1ccccc1` (single isomer, unassigned), in data set [1], the Ratio pIC50 was determined as 0.06. Further, the values for the IC50 in data set [2] (read-out: pIC50 (converted)) and in data set [3] (read-out: pIC50 (converted)) were 7.08 µM and 8.13 µM, respectively.
For the compound `O=C(OCC1CCCN(C(=O)CCc2ccccc2)C1)c1ccccc1C(F)(F)F` (stereo not given), the Ratio IC50 in data set [4] was determined as 2.1. For the same compound, the values for the IC50 in data set [2] (read-out: IC50) and in data set [3] (read-out: IC50) were 3.9 µM and 6.3 µM, respectively.
The matching figures for `O=C(NCc1ccccc1)c1ccccc1-c1ccccc1`: 1, 7.5 µM and 7.6 µM.
Turning to `O=C(OCC1CCCN(CCCc2ccccc2)C1)c1ccccc1Cl` (single isomer, unassigned), in data set [1], the Ratio pIC50 worked out at 0.39. The results for the IC50 in data set [2] (read-out: pIC50 (converted)) and in data set [3] (read-out: pIC50 (converted)) were 9.33 µM and 22.9 µM, respectively.
For `CO[C@@H]1C[C@H](OC)C[C@@H](OCCN2CCCC(COC(=O)c3ccccc3N3C(=O)CC(C)C3=O)C2)C1` (stereo not given in full) the same measures were 0.68, 12.6 µM and 41.7 µM.
For `CN1CCCC(COC(=O)c2ccccc2-c2ccccc2)C1` (single isomer, unassigned), in data set [1], the Ratio pIC50 is -0.16. In addition, the IC50 in data set [2] (read-out: pIC50 (converted)) is 6.92 µM; in data set [3] (read-out: pIC50 (converted)) it was 4.79 µM.
For `CC1CC(=O)N(c2ccccc2C(=O)OCC2CCCN(CCOc3cccc(Cl)c3)C2)C1=O` (stereo not given) the same measures were 0.14, 21.9 µM and 11.5 µM.
For `CC1CC(=O)N(c2ccccc2C(=O)OCC2CCCN(CCCCCc3ccccc3)C2)C1=O` (stereo not given) the same measures were -0.77, 24.5 µM and 4.17 µM.
The matching figures for `Cc1ccc(OCCN2CCCC(COC(=O)c3ccccc3N3C(=O)CC(C)C3=O)C2)cc1` (stereo not given): 0.22, 11.2 µM and 18.6 µM.
In the case of `O=C(OCC1CCCN(CCCCCOc2ccc(Cl)cc2)C1)c1ccccc1-c1ccccc1` (stereo not given), the Ratio pIC50 in data set [1] worked out at 0.02. Also, the IC50 in data set [2] (read-out: pIC50 (converted)) was 14.5 µM; in data set [3] (read-out: pIC50 (converted)), 15.5 µM.
For `c1ccc(CCCN2CCCC(COCc3cn(Cc4ccccc4-c4ccccc4)nn3)C2)cc1` (stereo not given) the same measures were 0.39, 2.88 µM and 7.24 µM.
As to `C[C@@H]1CC(=O)N(c2ccccc2C(=O)OC[C@@H]2CCCN(CCCc3ccccc3)C2)C1=O`, the Ratio pIC50 in data set [1] is 0.02. Besides, the IC50 was 8.91 µM in data set [2] (read-out: pIC50 (converted)) and 9.55 µM in data set [3] (read-out: pIC50 (converted)).
The matching figures for `O=C(OCC1CCCN(CCCc2ccccc2)C1)c1ccccc1-n1cc(-c2ccccc2)nn1` (single isomer, unassigned): 0.19, 2.82 µM and 4.27 µM.
For `O=C(OCC1CCCN(CCCc2ccccc2)C1)c1ccccc1N1C(=O)CC(CCc2ccccc2)C1=O` (stereo not given) the same measures were 0.81, 5.13 µM and 33.1 µM.
`O=C(OCC1CCCN(CCCc2ccccc2)C1)c1ccccc1-c1ccccc1` (stereo not given) yielded a logP in data set [5] of 5.9. In data set [1], the Ratio pIC50 came out at 3.87. Also, the IC50 is 13.5 µM in data set [2] (read-out: IC50) and above 100 µM in data set [3] (read-out: IC50).
On to `O=C(OCC1CCCN(CCCc2ccccc2)C1)c1ccccc1C(F)(F)F` (single isomer, unassigned), for which the Ratio pIC50 in data set [1] was -0.16. In addition, the values for the IC50 in data set [2] (read-out: IC50) and in data set [3] (read-out: IC50) were 8 µM and 5.5 µM, respectively.
With `CC1CC(=O)N(c2ccccc2C(=O)OC[C@@H]2C[C@H](C3CCCCC3)CN(CCCc3ccccc3)C2)C1=O` (stereo not given in full), the Ratio pIC50 in data set [1] came out at 0.33. Also, the IC50 in data set [2] (read-out: pIC50 (converted)) is 39.8 µM; in data set [3] (read-out: pIC50 (converted)), 85.1 µM.
For `CCN1CC(OC(=O)c2ccccc2N2C(=O)CC(C)C2=O)C2CC1C1OC(C)(C)OC21` (stereo not given) the same measures were 0.81, 12 µM and 77.6 µM.
As for `O=C(Nc1ccccc1)c1ccccc1-c1ccccc1`, the Ratio IC50 in data set [4] turned out to be 1.6. Further, the IC50 in data set [2] (read-out: IC50) was 6.9 µM; in data set [3] (read-out: IC50) it was 10.7 µM.
For the compound `CC1CC(=O)N(c2ccccc2C(=O)OCC2CCCN(CCOc3ccc(Cl)c(Cl)c3)C2)C1=O` (stereo not given), the Ratio pIC50 in data set [1] was found to be 0.06. Besides, the IC50 was 15.1 µM in data set [2] (read-out: pIC50 (converted)) and 17.4 µM in data set [3] (read-out: pIC50 (converted)).
The matching figures for `CC1(C)OC2C3CC(C2O1)N(CCCc1ccccc1)CC3OC(=O)c1ccccc1-c1ccccc1` (stereo not given): 0.08, 11.5 µM and 13.8 µM.
For `C[C@H]1CC(=O)N(c2ccccc2C(=O)OC[C@H]2CCCN(CCCc3ccccc3)C2)C1=O` the same measures were 0.02, 10.5 µM and 11 µM.
For `O=C(CCc1ccccc1)N1CCCC(CN(Cc2ccccc2-c2ccccc2)Cc2ccccc2-c2ccccc2)C1` (stereo not given) the same measures were 0.29, 20.9 µM and 40.7 µM.
On to `O=C(NCc1ccccc1-c1ccccc1)C1CCCN(CCCc2ccccc2)C1` (single isomer, unassigned), for which the Ratio pIC50 in data set [1] is -0.06. Moreover, the figures for the IC50 in data set [2] (read-out: pIC50 (converted)) and in data set [3] (read-out: pIC50 (converted)) were 16.6 µM and 14.5 µM, respectively.
As for `O=C(OCC1CCCN(CCCn2cc(-c3ccccc3)nn2)C1)c1ccccc1-c1ccccc1` (single isomer, unassigned), in data set [1], the Ratio pIC50 was determined as 1.78. For the same compound, the IC50 in data set [2] (read-out: pIC50 (converted)) was 6.46 µM; in data set [3] (read-out: pIC50 (converted)) it was 389 µM.
The matching figures for `O=C(OCC1CCCN(CCc2ccccc2)C1)c1ccccc1N1C(=O)CC(Cc2ccccc2)C1=O` (stereo not given): 0.42, 4.47 µM and 11.7 µM.
The matching figures for `O=C(OCC1CCCN(CCCc2ccccc2)C1)c1ccccc1N1C(=O)c2ccccc2C1=O` (single isomer, unassigned): 0.07, 5.01 µM and 5.89 µM.
For `CC(=O)Nc1ccccc1C(=O)OCC1CCCN(CCCc2ccccc2)C1` (stereo not given) the same measures were -0.11, 5.5 µM and 4.27 µM.
On to `CC1CC(=O)N(c2ccccc2C(=O)OCC2CCCN(CCOc3ccc4ccccc4c3)C2)C1=O` (stereo not given), for which the Ratio pIC50 in data set [1] is -0.04. Further, the results for the IC50 in data set [2] (read-out: pIC50 (converted)) and in data set [3] (read-out: pIC50 (converted)) were 7.41 µM and 6.76 µM, respectively.
As to `O=C(OC1CCCN(C(=O)CCc2ccccc2)C1)c1ccccc1-c1ccccc1` (stereo not given), in data set [4], the Ratio IC50 worked out at 1.5. Further, the IC50 in data set [2] (read-out: IC50) amounted to 4.3 µM; in data set [3] (read-out: IC50), 6 µM.
Regarding `[N-]=[N+]=NCCCN1CCCC(COC(=O)c2ccccc2-c2ccccc2)C1` (single isomer, unassigned), the Ratio pIC50 in data set [1] is -0.38. The results for the IC50 in data set [2] (read-out: pIC50 (converted)) and in data set [3] (read-out: pIC50 (converted)) were 4.27 µM and 1.82 µM, respectively.
For `O=C(CCC1CCCNC1)c1ccccc1-c1ccccc1` (stereo not given) the same measures were -0.14, 9.12 µM and 6.61 µM.
For `CC1CC(=O)N(c2ccccc2C(=O)OCC2CCCN(CCOc3cccc(-c4ccccc4)c3)C2)C1=O` (stereo not given) the same measures were 0.57, 7.24 µM and 26.9 µM.
For `O=C(Nc1ccncn1)c1ccccc1-c1ccccc1`, the Ratio IC50 in data set [4] worked out at 1.6. Moreover, the IC50 in data set [2] (read-out: IC50) was 25.1 µM; in data set [3] (read-out: IC50), 39.6 µM.
For `CC1CC(=O)N(c2ccccc2C(=O)OCC2CCCN(CCCC3CCCCC3)C2)C1=O` (stereo not given), the Ratio pIC50 in data set [1] is -0.14. The IC50 in data set [2] (read-out: pIC50 (converted)) was 14.5 µM; in data set [3] (read-out: pIC50 (converted)), 10.7 µM.
Take `O=C(Nc1cccc2ccccc12)c1ccccc1-c1ccccc1`: in data set [4], the Ratio IC50 was determined as 1.8. For the same compound, the results for the IC50 in data set [2] (read-out: IC50) and in data set [3] (read-out: IC50) were 10.7 µM and 18.2 µM, respectively.
Consider `CCN1CCCC(COC(=O)c2ccccc2N2C(=O)CC(Cc3ccccc3)C2=O)C1` (stereo not given), for which, in data set [1], the Ratio pIC50 was determined as 0.42. For the same compound, the IC50 in data set [2] (read-out: pIC50 (converted)) is 4.47 µM; in data set [3] (read-out: pIC50 (converted)), 11.7 µM.
For `CC1(C)CC(=O)N(c2ccccc2C(=O)OCC2CCCN(CCCc3ccccc3)C2)C1=O` (single isomer, unassigned) the same measures were 0.01, 4.9 µM and 5.01 µM.
In the case of `O=C(OCC1CCN(C(=O)CCc2ccccc2)CC1)c1ccccc1-c1ccccc1`, the Ratio IC50 in data set [4] was found to be 1.4. In addition, the figures for the IC50 in data set [2] (read-out: IC50) and in data set [3] (read-out: IC50) were 5.9 µM and 9.4 µM, respectively.
On to `CC1CC(=O)N(c2ccccc2C(=O)OCC2CCCN(CCCCOc3ccc(Cl)c(Cl)c3)C2)C1=O` (stereo not given), for which the Ratio pIC50 in data set [1] amounted to 0.78. For the same compound, the IC50 is 12.3 µM in data set [2] (read-out: pIC50 (converted)) and 74.1 µM in data set [3] (read-out: pIC50 (converted)).

In general, logP refers to the decadic logarithm of the partition coefficient of the neutral form, usually between octanol and water.
